Where “and” joins values, the source holds several entries; their conditions need not be identical. Equal entries are not always repeated.
How the values were obtained:
myocardial cGMP = assay: Myocardial cyclic nucleotide levels; format: in vivo, mouse; settings: for whole myocardial cGMP: acute intravenous administration
Text: Hearts were washed in ice-cold PBS, homogenized in 6% trichloroacetic acid, centrifuged and extracted with water-saturated ether. The aqueous layer was transferred, vacuum dried, and the pellet resuspended in sodium acetate buffer for cAMP and cGMP enzyme immunoassay (Amersham Pharmacia Biotech, Buckinghamshire, UK).

[1] = system: C57bl6 mice, isoproterenol-stimulated heart; assay: Acute isoproterenol-stimulated contractility in intact mice (pressure-volume relations); format: in vivo, mouse; settings: acute intravenous administration
Method: Isoproterenol (ISO: 20 ng/kg/minutes i.v.×5 min) with or without PDE5A inhibitor was given to anesthetized intact mice, and in vivo heart function assessed by pressure-volume relations at a fixed atrial pacing rate of 600-650 min^−1. Data were measured at baseline, with ISO, re-baseline, PDE5A-inhibition, and PDE5A inhibition+ISO. The ISO-only response was highly reproducible.

[2] = system: C57bl6 mice, isoproterenol-induced hypertrophy; assay: Chronic isoproterenol infusion (osmotic pump) cardiac hypertrophy; format: in vivo, mouse; settings: 2 weeks
Method: Acute increases in cardiac chamber contractility were induced by isoproterenol infusion in control C57b16 mice. The increase in cardiac systolic function was assessed by in vivo pressure-volume relations (FIG. 11E), and is reflected by a widening of the loop and shift of the upper left corner to the left. […] This supports the myocyte effects at the intact heart level. Furthermore, if isoproterenol is infused chronically by means of an implanted osmotic mini-pump, the heart responds by increasing the cardiac mass (hypertrophy) and with some dilation. This is shown for a group of control C57b16 mice (FIGS. 12A and 12B).

[3] = system: C57BL/6 mice, pressure overload by transverse aortic constriction; assay: In vivo cardiac hemodynamics by pressure-volume analysis, TAC mice; set-up: species or system mouse; settings: 3 wk TAC, compared with sildenafil results
Method: (§1) Pressure overload was produced by transverse aortic constriction.
Transthoracic two-dimensional guided M-mode echocardiography was performed in non-anesthetized mice. Measurements were done using an echocardiography system, the SEQUOIA C256 (Siemens, Munich, Del.) with the 15 MHz linear-array transducer. Intact heart hemodynamic analysis was performed as described^90. These studies employed a four-electrode pressure-volume catheter (model SPR-839, Millar Instruments) placed through the left ventricular apex in the open chest anesthetized animal and positioned along the longitudinal axis to record chamber volume by impedance and pressure by micromanometry.
All hemodynamic data were recorded using custom developed software, digitizing signals at 2 KHz. End-diastolic and end-systolic volumes were the average of volumes measured during isovolumic contraction and relaxation, respectively. ESP was the pressure at maximal chamber elastance (P/V ratio)^1. EDP was the diastolic pressure at the lower right hand corner of the pressure-volume loop. Cardiac output was determined from a perivascular flow probe (Transonics, Ithica, N.Y.) placed around the thoracic aorta. Ea was equal to the ratio of end-systolic pressure divided by stroke volume. The volume catheter signal was calibrated for both gain and offset. Gain was determined by setting the catheter-derived cardiac output (equal to pressure-volume loop width times heart rate) to that obtained from the calibrated flow probe value. Offset was determined using the hypertonic saline method Ventricular power was equal to the instantaneous product of pressure times flow, and the peak power was divided by EDV to obtain the power index PMXI^79. […] The slope of this relation Ees was normalized by heart mass and expressed per gm heart mass. Msw was derived from the linear relation between stroke work and EDV from the same set of variably loaded cardiac cycles used to derive Eesn, and is another load-independent assessment of systolic contractile function^4. Tau was obtained from the model: P=Po+ae^−t/□ . . . fitting data during isovolumic relaxation. dP/dt was derived from a digital filter (5-point weighted slope). PFR/EDV was derived from the maximal first derivative of the volume signal during early diastole, divided by EDV.

ex vivo vascular rings = settings: cited from earlier work
[4] = system: C57BL/6 mice, pressure overload by transverse aortic constriction; assay: TAC-induced cardiac hypertrophy, remodeling and fibrosis (heart weight/tibia length, histology); format: in vivo, mouse; settings: TAC mice, concurrent oral treatment
Text: TAC induced marked heart chamber and cellular hypertrophy (+100% by 3-weeks) that progressed to chamber dilation with reduced fractional shortening after 9 weeks. […] TAC induced a time-dependent increase in myocardial fibrosis and myocyte hypertrophy and both were suppressed by PDE5A inhibition (FIG. 1C, e.g. 67% reduction in fibrosis in 9-week hearts, p<0.0001).
as §1
Hearts were fixed with 10% formalin overnight, then embedded in paraffin, sectioned at 5 μm thickness and stained with PAS methenamine. Cardiomyocyte diameter and interstitial collagen fraction were determined using computer-assisted image analysis (Adobe Photoshop 5.0, NIH Image J), with the observer blinded as to tissue source. At least 4-5 different hearts, with five separate fields of cells (total 50-70 cells for each heart) were quantified for cellular analysis.

purified PDE5A = purified PDE5A (Homo sapiens, UniProt O76074); settings: cited from earlier work
fetal gene expression = assay: Cardiac fetal gene expression (RNA dot blot) in TAC hearts; format: in vivo, mouse; settings: 3 wk TAC
Method: RNA samples were prepared from snap-frozen hearts using a ready-to-use reagent for the isolation of total RNA TRIZOL reagent (Life Technology, Gaithersburg, Md.) according to the manufacturer's protocol. RNA dot-blot analysis was performed using a published protocol with a set of oligonucleotide probes^59. Data are shown normalized to GAPDH measured for each respective sample.

[5] = system: isolated adult murine myocytes; assay: Isoproterenol-stimulated contraction of isolated adult cardiac myocytes; format: cell-based, mouse; settings: ODQ plus sildenafil plus ISO
Method: Louis, Mo.) for 6-7 min. Ventricles were gently chopped, filtered (150μ mesh), centrifuged (500 RPM×1 min), and rinsed in Tyrode's solution with increasing calcium (final 1.8 mM Ca^2+). Cells were incubated with 5 μM Indo-1 AM (Molecular Probes), rinsed, and studied at 27° C. by field stimulation in an inverted fluorescence microscope (Diaphot 200; Nikon, Inc). Sarcomere length (IonOptix, MA) and whole cell calcium transients were measured.

[6] = system: total cGMP-esterase activity; assay: cGMP-esterase (low Km cGMP phosphodiesterase) activity of heart and isolated myocytes; format: biochemical, mouse
PKG-1 = PKG-1 activity in isolated adult myocytes; format: cell-based, mouse
Method: After 10 min, cells were lysed and PKG-1 activity determined.

[7] = human, cited from earlier work
[8] = inhibitor combined with isoproterenol

CC[C@H](C)[C@@H]1NC(=O)[C@H](CCCNC(=N)N)NC(=O)[C@H](CC(=O)O)NC(=O)[C@H](CCSC)NC(=O)[C@H](CCCNC(=N)N)NC(=O)CNC(=O)CNC(=O)[C@H](Cc2ccccc2)NC(=O)[C@@H](NC(=O)[C@H](CO)NC(=O)[C@H](CO)NC(=O)[C@H](CCCNC(=N)N)NC(=O)[C@H](CCCNC(=N)N)NC(=O)[C@H](CC(C)C)NC(=O)[C@@H](N)CO)CSSC[C@@H](C(=O)N[C@@H](CC(N)=O)C(=O)N[C@@H](CO)C(=O)N[C@@H](Cc2ccccc2)C(=O)N[C@@H](CCCNC(=N)N)C(=O)N[C@@H](Cc2ccc(O)cc2)C(=O)O)NC(=O)CNC(=O)[C@H](CC(C)C)NC(=O)CNC(=O)[C@H](CO)NC(=O)[C@H](CCC(N)=O)NC(=O)[C@H](C)NC(=O)CNC1=O [ANP, atrial natriuretic peptide]
whole myocardial cGMP (myocardial cGMP): marked rise in myocardial cGMP
isoproterenol-stimulated contractility in intact heart [1]: had no effect on the ISO response in the intact heart

CCCc1nn(C)c2c(NCc3ccc(OC)c(Cl)c3)nc(COCC(=O)O)nc12 [EMD 360527, [7-(3-Chloro-4-methoxy-benzylamino)-1-methyl-3-propyl-1H-pyrazolo[4,3-d]pyrimidin-5-ylmethoxy]-acetic acid]
total myocardial cGMP (myocardial cGMP; TAC hearts, chronic co-treatment): slight decline
whole myocardial cGMP (myocardial cGMP): negligible effect
development of cardiac hypertrophy [2]: markedly inhibited the development of cardiac hypertrophy
cardiac function by pressure-volume analysis [3]: near identical physiologic results
IC50 (ex vivo vascular rings): 1000 nM
TAC-induced hypertrophy and chamber remodeling [4]: yielded identical findings
TAC-induced hypertrophy and chamber remodeling ([4]; listed as EMD360527): prevented the development of both cardiac hypertrophy and accompanying chamber dilation and remodeling
IC50 (purified PDE5A): ~10 nM
fetal gene expression (fetal gene expression): reversed the TAC-induced rise in fetal gene expression

O=c1onc2cnc3ccccc3n12 [ODQ]
blunting of ISO response by sildenafil when sGC is inhibited [5]: prevented

CN1CC(=O)N2[C@H](c3ccc4c(c3)OCO4)c3[nH]c4ccccc4c3C[C@@H]2C1=O [tadalafil]
proportion of total cGMP-esterase activity attributable to PDE5 ([6]; 3 week TAC hearts): ~60%
percent of total cGMP-esterase activity blocked by co-incubation ([6]; sham control hearts (baseline)): approximately 30%
enhancement of PKG-1 activity (PKG-1; basal conditions, inhibitor alone): ~10%
rise in PKG-1 activity (PKG-1; [8]): 50% and 70%
rise in PKG-1 activity over ISO alone (PKG-1; [8]): 30%
time of peak plasma concentration post-dose ([7]; in vivo, po): two
apparent oral clearance (CL/F) [7]: 2.48 L/h
mean elimination half-life [7]: about 17.5 h

Reference: patent publication US8299083B2, “PDE5 inhibitor compositions and methods for treating cardiac indications” (The Johns Hopkins University, priority 2004, dated 2012)
